Reference: paper PMC4727417, “Characterization of a novel 8R,11S-linoleate diol synthase from Penicillium chrysogenum by identification of its enzymatic products” (Journal of Lipid Research, 2016)

B1: 8R,11S-linoleate diol synthase (8R,11S-LDS; PC_1) (Penicillium rubens Wisconsin 54-1255) (protein)
chain: MAEKESNSSGKIAQLEQVVAAALRPLPTQTGDGSYVQEPTVTGLAKDLLNFDLKDAKTLADMAKTAVTGKAVNDRDYIMERVIQLASGLPSTSRNGKELTNTFLTQLWGDLEHPPISYLGRDAAYRKADGSGNNTFWPQIGAANTPYARSVRPKTMQPVALPEPEALFDSLLARKDFKEHPNKISSVLFHLASIIIHDLFQTDPRDQTKSLTSSYLDLSPLYGNNQKEQDTVRAFKDGKLKPDCFSTKRVLGFPPGVGVILIMFNRFHNSVVTQLAAINEGGRFTKPDESNAEAYATWDNDLFQTARLVTCGLYINIILKDYVRTILNVNRTDSLWSLDPRADIRDGLLGEAPAQATGNQVSAEFNLVYRWHSCVSSRDEKWSEDLYKEIFDGKDPKEISMQQFTGGLRQWESKLPADPQERPFAKLQRQADGKFDDNDLVKIFEESVEDPAGAFGALNVPDVFRGIEVLGIKQARSWNLATLNEFRQYFGLAAYQTFEEINPDPYVANQLKHFYDHPDLVELYPGLVVEETKQAMTPGSGLCTNFTTSRAILSDAVALVRGDRFYTVDFTPKHLTNWAFNEINNDVSVDGGQVFYKLILKAFPNHFRGDSVYAHFPLVVPDENKKILTSLGKVKTYSFDRPFYKAPPLFINSHSACTKILKDQEGFKVVWGEKIQFLMENSGRPYGRDFALSGDLPANAASRKMIGAALHRDKWESEVKAFYEDITLKLLERNSFKVAGVNQVDIVRDVAVLAQVNFCANVFSLSLKTESNPRGVFSEQELYQILAVIFASIFYDVDVSKSLQLCQTARNVAQQLGELTLANVELVAKTGFISNLVNRLHRHDILSEYGIHMIQRLLDSQLPVKDVVWSHILPTAGALVANQGQLFSQCIDYYLSEEAAEHLAEIQRLSREDTPEADELLVRYFMEGARLRCSVALPRFATKPTVVDDNGKRVTLKAGQEIICNLVVAGRDPVAFPDPDKVRLDRDMSLYTHFGFGPHECLGVKMCPLALSTMLKVLGRLDNVRRAPGPQGHLKRLDGLGGIAMYMDAEHSSFSPFPMTMKIQWDGDLPARRE
notes: full length, 1,074 residues, C-terminal His6 (pET-21a), E. coli ER2566, HisTrap purified; calculated 120,998 Da; N-terminal DOX domain 1-669, C-terminal P450 hydroperoxide isomerase domain 670-1074

How the values were obtained:
[1] = molecular target: T1, 8R,11S-linoleate diol synthase (8R,11S-LDS; PC_1) (Penicillium rubens, UniProt B6HQI5); assay: UV-visible spectroscopy, heme/protein absorption ratio (A410/A280); type: binding; details: heme occupancy of the purified enzyme
T1 construct: gene Pc22g06980; full length, 1,074 residues, C-terminal His6 (pET-21a), E. coli ER2566, HisTrap purified; calculated 120,998 Da; N-terminal DOX domain 1-669, C-terminal P450 hydroperoxide isomerase domain 670-1074

[2] = molecular target: T1, 8R,11S-linoleate diol synthase (8R,11S-LDS; PC_1); assay: HPLC of dihydroxy fatty acid product, Hanes-Woolf plot; type: biochemical; details: whole enzyme activity: overall conversion to dihydroxy fatty acid by sequential DOX and hydroperoxide isomerase domains; 25°C, 50 mM EPPS pH 8.0
[3] = molecular target: T1, 8R,11S-linoleate diol synthase (8R,11S-LDS; PC_1); assay: O2 uptake, Clark-type oxygen monitor, Hanes-Woolf plot; type: biochemical; details: DOX activity (N-terminal dioxygenase domain of the whole enzyme); co-substrate O2; 50 mM EPPS pH 8.0, 25°C
[4] = substrate: CCCCCC/C=C\CCCCCCCC(=O)O; assay: as above; type: biochemical, Penicillium rubens; details: DOX activity (N-terminal dioxygenase domain of the whole enzyme), co-substrate O2, 50 mM EPPS pH 8.0, 25°C
Excerpt: O2 uptake, Clark-type oxygen monitor, Hanes-Woolf plot on 8R,11S-linoleate diol synthase (8R,11S-LDS; PC_1)

| Molecule | Km [2] | Km [3] | also measured |
| --- | --- | --- | --- |
| C=CC1=C(C)C2=Cc3c(C=C)c(C)c4[n]3[Fe][n]3c(c(C)c(CCC(=O)O)c3=CC3=NC(=C4)C(C)=C3CCC(=O)O)=CC1=N2 [heme] | – | – | UV-visible spectroscopy, heme/protein absorption ratio (A410/A280) [1]: Heme occupancy of the wild-type and H999A, C1001S, and H999A-C1001S variant enzymes |
| CCCCC/C=C\C/C=C\CCCCCCCC(=O)O [linoleic acid] | 86.1 ± 1.8 µM | 18.9 ± 0.6 µM | – |
| CCCCCCCC/C=C\CCCCCCCC(=O)O [oleic acid] | – | 34.3 ± 1.2 µM | – |
| CC/C=C\C/C=C\C/C=C\CCCCCCCC(=O)O [α-linolenic acid] | 138 ± 3.2 µM | 69.9 ± 0.3 µM | – |
| B1 | – | – | Km [4]: 20.0 ± 0.5 µM; kcat [4]: 81.8 ± 3.77 s⁻¹; kcat/Km [4]: 4.32e+06 M⁻¹ s⁻¹ |
